# Measured values taken from EP0629585A1, “Process of inhibition oxalate scale formation” (MONSANTO EUROPE S.A., priority 1993, dated 1994).
# Structures can show the parent of a compound that is named as a salt.
# Test: Calcium oxalate scale inhibition test under conditions similar to an alkaline pulp bleaching process
# Conditions: dosage 25 ppm active acid, 45°C, pH 9.5, 100 ppm calcium, 80 ppm oxalates
# Protocol: The preferred oxalate scale inhibiting compound of the invention, i.e. the compound of formula I above, was tested alongside various members of the known "DEQUEST" family of phosphonate inhibitors under conditions similar to those encountered in an alkaline pulp bleaching process. The word "DEQUEST" is a Registered Trade Mark.
# The temperature of the aqueous solution used in the tests was maintained at 45°C and the pH at 9.5 (adjusted using an ammonium hydroxide/ammonium chloride buffering agent). Tests times of 2.5, 8 and 24 hours were deployed, and concentrations of 100 ppm of calcium and 80 ppm of oxalates were present in the aqueous solution. A dosage rate of inhibitor of 25 ppm was used in each test. The "DEQUEST" scale inhibitors used in the tests were designated A to E and were as follows: • A - DEQUEST 2066 (diethylenetriaminepenta(methylenephosphonic acid) or its salts) • B - DEQUEST 2046 (ethylenediaminetetra(methylenephosphonic acid) or its salts) • C - DEQUEST 2000 (aminotri(methylenephosphonic acid) or its salts) • D - DEQUEST 2010 (1-hydroxyethylene(1,1 diphosphonic acid)) • E - DEQUEST 2056 (hexamethylenediaminetetra(methylenephosphonic acid) or its salts). TABLE
# The results above express the scale-inhibiting effects of the various inhibitors in terms of percentage inhibition.
Compound,Percentage Inhibition (time 2.5 hrs),Percentage Inhibition (time 8 hrs),Percentage Inhibition (time 24 hrs)
O=P(O)(O)CN(CCCN(CP(=O)(O)O)CP(=O)(O)O)CCN(CCCN(CP(=O)(O)O)CP(=O)(O)O)CP(=O)(O)O [(I)],100,92,49
ethylenediaminetetra(methylenephosphonic acid) or its salts [B],50,23,14
hexamethylenediaminetetra(methylenephosphonic acid) or its salts,34,,
diethylenetriaminepenta(methylenephosphonic acid) or its salts,64,38,24
"CC(O)(P(=O)(O)O)P(=O)(O)O [D, 1-hydroxyethylene(1,1 diphosphonic acid)]",49,,
"O=P(O)(O)CN(CP(=O)(O)O)CP(=O)(O)O [C, aminotri(methylenephosphonic acid) or its salts]",51,,
